Assay type in all cases: cell-based
Assay [1] relates to Staphylococcus aureus. In words: Agar plate disc-diffusion, antibacterial. The following applies: nutrient agar, 37° C., 48 hours. The protocol:
(§1) The agar plate disc-diffusion method was applied. […] The discs were then placed onto the surface of agar plates (nutrient agar for bacteria and Sabouraud's dextrose agar for fungi) seeded with the test organism. Each plate contained 15 mL of the agar medium, previously seeded with 0.2 mL of the broth culture of each organism pregrown for 18 hours. The plates were incubated at 37° C. for 48 hours, and 72 hours for fungi. The inhibition zones was measured in mm. Discs impregnated with DMSO were used as a control, and its inhibition zone was subtracted from the tested compound actual inhibition zone.

The test system of assay [2] is Pseudomonas aeruginosa. The assay can be described thus: Agar plate disc-diffusion, antibacterial. Conditions: nutrient agar, 37° C., 48 hours. How it is done: as §1
(Agar diffusion results depend on both activity and mobility in agar.)

The test system of assay [3] is Bacillus cereus. The assay can be described thus: Agar plate disc-diffusion, antibacterial. The following applies: nutrient agar, 37° C., 48 hours. How it is done:
as §1

For assay [4], the system named is Escherichia coli. The assay can be described thus: Agar plate disc-diffusion, antibacterial. Conditions: nutrient agar, 37° C., 48 hours. The protocol: as §1
The test system of assay [5] is Aspergillus flavus. The assay can be described thus: Agar plate disc-diffusion, antifungal. Conditions: Sabouraud's dextrose agar, 72 hours. The protocol:
as §1

Assay [6] concerns Chrysosporium keratinophilum. In words: Agar plate disc-diffusion, antifungal. The following applies: Sabouraud's dextrose agar, 72 hours. How it is done:
as §1

[7] abbreviates: A = concentration of comp. = 10,000 μL.
Setting [8] is: B = concentration of comp. = 30,000 μL.
The mark [9] stands for this setting: C = concentration of comp. = 50,000 μL.
[10] abbreviates: A = concentration of comp. = 10,000 μg/mL.

Inhibition zone data for 2 molecules are collected here from patent publication US11945783B1, “4-(4,5-bis(4-bromophenyl)-2-(4-methoxyphenyl)-1H-imidazol-1-yl)butanoic acid as an antimicrobial compound” (KING FAISAL UNIVERSITY, priority 2023, dated 2024).

As to `O=C(O)c1cn(C2CC2)c2cc(N3CCNCC3)c(F)cc2c1=O` [Cip., ciprofloxacin], the inhibition zone is 43 mm in assay [1] (setting [7]); 44 mm in assay [1] (setting [8]); 53 mm in assay [1] (setting [9]); 29 mm in assay [2] (setting [10]); 30 mm in assay [2] (setting [8]); 53 mm in assay [2] (setting [9]). Besides, the inhibition zone in assay [3] (setting [7]) stood at 29 mm; in assay [3] (setting [8]), 31 mm; in assay [3] (setting [9]), 42 mm; in assay [4] (setting [7]), 30 mm; in assay [4] (setting [8]) it was 39 mm; in assay [4] (setting [9]), 60 mm. For the same molecule, the inhibition zone came to 29 mm in assay [5] (setting [7]); 32 mm in assay [5] (setting [8]); 42 mm in assay [5] (setting [9]); 29 mm in assay [6] (setting [7]); 30 mm in assay [6] (setting [8]); 53 mm in assay [6] (setting [9]).
Regarding `COc1ccc(-c2nc(-c3ccc(Br)cc3)c(-c3ccc(Br)cc3)n2CCCC(=O)O)cc1` [V, 4-(4,5-bis(4-bromophenyl)-2-(4-methoxyphenyl)-1H-imidazol-1-yl)butanoic acid], the inhibition zone is 18 mm in assay [1] (setting [7]); 20 mm in assay [1] (setting [8]); 30 mm in assay [1] (setting [9]); 21 mm in assay [2] (setting [10]); 24 mm in assay [2] (setting [8]); 35 mm in assay [2] (setting [9]). Further, the inhibition zone in assay [3] (setting [7]) was 28 mm; in assay [3] (setting [8]), 30 mm; in assay [3] (setting [9]) it was 41 mm; in assay [4] (setting [7]), 26 mm; in assay [4] (setting [8]), 35 mm; in assay [4] (setting [9]), 47 mm. Also, the inhibition zone came out at 19 mm in assay [5] (setting [7]); 21 mm in assay [5] (setting [8]); 32 mm in assay [5] (setting [9]); 26 mm in assay [6] (setting [7]); 28 mm in assay [6] (setting [8]); 50 mm in assay [6] (setting [9]).
